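Tested at 5 concentrations; 48 h exposure; 96-well plates; endpoints linearly interpolated, else capped at highest concentration. TGI is the concentration that stops growth completely.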
Legend:
Test in all cases: NCI tumour cell line growth inhibition, 48 h
ACHN renal = tested on: ACHN renal
BT-549 breast = tested on: BT-549 breast
CAKI-1 renal = tested on: CAKI-1 renal
DU-145 prostate = tested on: DU-145 prostate
EKVX NSCLC = tested on: EKVX NSCLC
HCT-116 colon = tested on: HCT-116 colon
HT29 colon = tested on: HT29 colon
MCF7 breast = tested on: MCF7 breast
MDA-N = tested on: MDA-N
NCI-H226 lung = tested on: NCI-H226 lung
SF-268 CNS = tested on: SF-268 CNS
SF-539 CNS = tested on: SF-539 CNS
SK-MEL-2 melanoma = tested on: SK-MEL-2 melanoma
SK-OV-3 ovarian = tested on: SK-OV-3 ovarian
SW-620 colon = tested on: SW-620 colon
UACC-62 melanoma = tested on: UACC-62 melanoma
K-562 leukemia = tested on: K-562 leukemia

## CN(C)CCCCN1c2ccccc2Sc2cc(N=[N+]=[N-])ccc21
ACHN renal
  TGI: 4.5 µM
BT-549 breast
  TGI: 22.9 µM
CAKI-1 renal
  TGI: 3.73 µM
DU-145 prostate
  TGI: 3.8 µM
EKVX NSCLC
  TGI: 15.5 µM
HCT-116 colon
  TGI: 3.32 µM
HT29 colon
  TGI: 2.9 µM
MCF7 breast
  TGI: 3.32 µM
MDA-N
  TGI: 3.1 µM
NCI-H226 lung
  TGI: 7.9 µM
SF-268 CNS
  TGI: 4.62 µM
SF-539 CNS
  TGI: 3.4 µM
SK-MEL-2 melanoma
  TGI: 3.4 µM
SK-OV-3 ovarian
  TGI: 5.1 µM
SW-620 colon
  TGI: 3.56 µM
UACC-62 melanoma
  TGI: 3.31 µM

## COc1ccc(/C=C2\CCCCCC2=O)cc1
ACHN renal
  TGI: > 100 µM
BT-549 breast
  TGI: > 100 µM
CAKI-1 renal
  TGI: > 100 µM
DU-145 prostate
  TGI: > 100 µM
EKVX NSCLC
  TGI: > 100 µM
HCT-116 colon
  TGI: > 100 µM
HT29 colon
  TGI: > 100 µM
K-562 leukemia
  TGI: > 100 µM
MCF7 breast
  TGI: > 100 µM
MDA-N
  TGI: > 100 µM
NCI-H226 lung
  TGI: > 100 µM
SF-268 CNS
  TGI: > 100 µM
SF-539 CNS
  TGI: > 100 µM
SK-MEL-2 melanoma
  TGI: > 100 µM
SK-OV-3 ovarian
  TGI: > 100 µM
SW-620 colon
  TGI: > 100 µM
UACC-62 melanoma
  TGI: > 100 µM

## Nc1cn(Cc2ccccc2)c2nc(/C=C3/C=CC=CC3=O)c(O)n12
ACHN renal
  TGI: > 100 µM
BT-549 breast
  TGI: > 100 µM
CAKI-1 renal
  TGI: > 100 µM
DU-145 prostate
  TGI: > 100 µM
EKVX NSCLC
  TGI: > 100 µM
HCT-116 colon
  TGI: > 100 µM
HT29 colon
  TGI: > 100 µM
K-562 leukemia
  TGI: > 100 µM
MCF7 breast
  TGI: > 100 µM
MDA-N
  TGI: > 100 µM
NCI-H226 lung
  TGI: > 100 µM
SF-268 CNS
  TGI: > 100 µM
SF-539 CNS
  TGI: > 100 µM
SK-MEL-2 melanoma
  TGI: > 100 µM
SK-OV-3 ovarian
  TGI: > 100 µM
SW-620 colon
  TGI: > 100 µM
UACC-62 melanoma
  TGI: > 100 µM

## O=C(CCc1ccc(O)cc1)NCCc1cccc(OCc2ccccc2)c1
ACHN renal
  TGI: > 100 µM
BT-549 breast
  TGI: 45.6 µM
CAKI-1 renal
  TGI: > 100 µM
DU-145 prostate
  TGI: > 100 µM
EKVX NSCLC
  TGI: > 100 µM
HCT-116 colon
  TGI: 50.6 µM
HT29 colon
  TGI: 38.4 µM
K-562 leukemia
  TGI: 65.9 µM
MCF7 breast
  TGI: 86.6 µM
MDA-N
  TGI: 68.4 µM
NCI-H226 lung
  TGI: 97.8 µM
SF-268 CNS
  TGI: > 100 µM
SF-539 CNS
  TGI: 31 µM
SK-MEL-2 melanoma
  TGI: 39.1 µM
SK-OV-3 ovarian
  TGI: > 100 µM
UACC-62 melanoma
  TGI: 34 µM

## COC(=O)C1=C(\c2ccccc2)c2ccccc2C(=O)N(C2CCCCC2)/C=C\1
ACHN renal
  TGI: > 100 µM
BT-549 breast
  TGI: 74.6 µM
CAKI-1 renal
  TGI: 54.6 µM
DU-145 prostate
  TGI: > 100 µM
EKVX NSCLC
  TGI: > 100 µM
HCT-116 colon
  TGI: 64 µM
HT29 colon
  TGI: > 100 µM
K-562 leukemia
  TGI: > 100 µM
MCF7 breast
  TGI: 77.4 µM
MDA-N
  TGI: > 100 µM
NCI-H226 lung
  TGI: 81.5 µM
SF-268 CNS
  TGI: > 100 µM
SF-539 CNS
  TGI: 55.9 µM
SK-MEL-2 melanoma
  TGI: 39.2 µM
SK-OV-3 ovarian
  TGI: > 100 µM
SW-620 colon
  TGI: > 100 µM

## NC(N)=N/N=C/c1c(-c2ccc([N+](=O)[O-])cc2)nc2n1CCS2
ACHN renal
  TGI: 30.7 µM
BT-549 breast
  TGI: 34.2 µM
CAKI-1 renal
  TGI: 34.4 µM
DU-145 prostate
  TGI: 28.1 µM
EKVX NSCLC
  TGI: 37.8 µM
HCT-116 colon
  TGI: 23 µM
HT29 colon
  TGI: 31 µM
K-562 leukemia
  TGI: 22.6 µM
MCF7 breast
  TGI: 30.3 µM
MDA-N
  TGI: 26.5 µM
NCI-H226 lung
  TGI: 42.9 µM
SF-268 CNS
  TGI: 25.4 µM
SF-539 CNS
  TGI: 32.3 µM
SK-MEL-2 melanoma
  TGI: 22 µM
SK-OV-3 ovarian
  TGI: 43.2 µM
SW-620 colon
  TGI: 7.33 µM
UACC-62 melanoma
  TGI: 35.3 µM

## Cc1cccc(C)c1NC(=S)NC=C(C(N)=O)C(N)=O
ACHN renal
  TGI: > 100 µM
BT-549 breast
  TGI: > 100 µM
CAKI-1 renal
  TGI: > 100 µM
DU-145 prostate
  TGI: > 100 µM
EKVX NSCLC
  TGI: > 100 µM
HCT-116 colon
  TGI: > 100 µM
HT29 colon
  TGI: > 100 µM
K-562 leukemia
  TGI: > 100 µM
MCF7 breast
  TGI: > 100 µM
MDA-N
  TGI: > 100 µM
NCI-H226 lung
  TGI: > 100 µM
SF-268 CNS
  TGI: > 100 µM
SF-539 CNS
  TGI: > 100 µM
SK-MEL-2 melanoma
  TGI: > 100 µM
SK-OV-3 ovarian
  TGI: > 100 µM
SW-620 colon
  TGI: > 100 µM
UACC-62 melanoma
  TGI: > 100 µM

## N#Cc1sc2c(c1OC(=O)c1cccs1)c(=O)n(-c1ccccc1)c(=S)n2-c1ccccc1
BT-549 breast
  TGI: 77.8 µM
CAKI-1 renal
  TGI: > 100 µM
DU-145 prostate
  TGI: > 100 µM
EKVX NSCLC
  TGI: 89.9 µM
HCT-116 colon
  TGI: 34.2 µM
HT29 colon
  TGI: > 100 µM
K-562 leukemia
  TGI: 83.4 µM
MCF7 breast
  TGI: 49.7 µM
MDA-N
  TGI: 68.5 µM
NCI-H226 lung
  TGI: 43.4 µM
SF-268 CNS
  TGI: 86 µM
SF-539 CNS
  TGI: 49.6 µM
SK-MEL-2 melanoma
  TGI: 51 µM
SK-OV-3 ovarian
  TGI: > 100 µM
SW-620 colon
  TGI: 84.6 µM
UACC-62 melanoma
  TGI: 35.2 µM

## COc1cccc2c(Nc3ccc(S(=O)(=O)NC(C)=O)cc3)c3ccc([N+](=O)[O-])cc3nc12
ACHN renal
  TGI: > 100 µM
BT-549 breast
  TGI: > 56 µM
CAKI-1 renal
  TGI: > 100 µM
DU-145 prostate
  TGI: > 100 µM
EKVX NSCLC
  TGI: > 100 µM
HCT-116 colon
  TGI: > 100 µM
HT29 colon
  TGI: 28.5 µM
K-562 leukemia
  TGI: > 84.7 µM
MCF7 breast
  TGI: > 100 µM
MDA-N
  TGI: > 100 µM
NCI-H226 lung
  TGI: > 64.7 µM
SF-268 CNS
  TGI: > 93.7 µM
SF-539 CNS
  TGI: > 100 µM
SK-MEL-2 melanoma
  TGI: > 100 µM
SK-OV-3 ovarian
  TGI: > 100 µM
SW-620 colon
  TGI: > 79.8 µM
UACC-62 melanoma
  TGI: > 58.3 µM

## O=C(O)c1ccc2c(c1)CC1(C2)Cc2ccccc2C1=O (stereo not given)
ACHN renal
  TGI: > 100 µM
BT-549 breast
  TGI: > 100 µM
DU-145 prostate
  TGI: > 100 µM
EKVX NSCLC
  TGI: > 100 µM
HCT-116 colon
  TGI: > 100 µM
HT29 colon
  TGI: > 100 µM
K-562 leukemia
  TGI: > 100 µM
MCF7 breast
  TGI: > 100 µM
MDA-N
  TGI: > 100 µM
NCI-H226 lung
  TGI: > 100 µM
SF-268 CNS
  TGI: > 100 µM
SF-539 CNS
  TGI: > 100 µM
SK-MEL-2 melanoma
  TGI: > 100 µM
SK-OV-3 ovarian
  TGI: > 100 µM
SW-620 colon
  TGI: > 100 µM
UACC-62 melanoma
  TGI: > 100 µM

## CC(=O)OCC1OC(N2C(C)=C(C(C)=O)C(c3ccco3)C(C#N)=C2S)C(OC(C)=O)C(OC(C)=O)C1OC(C)=O (stereo not given)
ACHN renal
  TGI: > 100 µM
BT-549 breast
  TGI: > 100 µM
CAKI-1 renal
  TGI: > 100 µM
DU-145 prostate
  TGI: > 100 µM
HCT-116 colon
  TGI: > 100 µM
HT29 colon
  TGI: > 100 µM
K-562 leukemia
  TGI: > 100 µM
MCF7 breast
  TGI: > 100 µM
MDA-N
  TGI: > 100 µM
NCI-H226 lung
  TGI: > 100 µM
SF-268 CNS
  TGI: > 100 µM
SF-539 CNS
  TGI: > 100 µM
SK-MEL-2 melanoma
  TGI: > 100 µM
SW-620 colon
  TGI: > 100 µM
UACC-62 melanoma
  TGI: > 100 µM
